Experimental data: US8871760B2, “[1,2,4]triazolo[3,4-C][1,4]oxazines as P2X7 modulators” (Roche Palo Alto LLC, priority 2009, dated 2014)

molecular target: T1, human P2X7 (UniProt Q99572); assay: Intracellular Calcium Flux (FLIPR) Assay; format: cell-based
T1 sequence (Q99572 1-595): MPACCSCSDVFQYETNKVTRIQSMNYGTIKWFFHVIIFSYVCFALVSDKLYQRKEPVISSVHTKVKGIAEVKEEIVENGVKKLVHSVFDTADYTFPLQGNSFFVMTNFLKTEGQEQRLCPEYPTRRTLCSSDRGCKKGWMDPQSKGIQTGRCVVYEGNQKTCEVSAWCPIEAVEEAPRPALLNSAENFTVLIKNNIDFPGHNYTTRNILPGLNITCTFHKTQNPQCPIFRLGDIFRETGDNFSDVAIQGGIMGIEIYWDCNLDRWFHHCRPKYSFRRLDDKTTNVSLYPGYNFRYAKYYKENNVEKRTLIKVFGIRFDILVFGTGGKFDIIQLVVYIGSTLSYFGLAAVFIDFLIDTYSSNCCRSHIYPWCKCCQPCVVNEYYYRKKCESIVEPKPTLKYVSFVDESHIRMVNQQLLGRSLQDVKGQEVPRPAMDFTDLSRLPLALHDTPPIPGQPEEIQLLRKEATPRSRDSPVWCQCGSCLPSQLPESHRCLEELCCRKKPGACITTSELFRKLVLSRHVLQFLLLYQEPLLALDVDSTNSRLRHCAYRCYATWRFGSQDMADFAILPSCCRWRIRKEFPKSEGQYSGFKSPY
Description: Intracellular Calcium Flux (FLIPR) Assay
Compound and Reagent Preparation
Stock solutions of compounds were prepared from powders as a 10 mM DMSO stock solution. These solutions were stored at RT during the two week period of these experiments to prevent freeze-thaw of the DMSO stocks. The DMSO stocks were added to the appropriate assay buffer at a concentration of 10 μM, and then diluted serially to the final concentrations that were tested. No observable precipitate was formed at any time during this process. The aqueous solutions of compounds as well as ATP (Sigma A7699) and BzATP (Sigma B6396) were prepared fresh for each day of experiment.
1321N1 cells stably expressing the full length human P2X7 gene (1321N1-hP2X7) and HEK293 cells stably expressing the full length rat P2X7 gene (HEK293-rP2X7) were obtained from the Roche Cell Culture Facility. 1321N1-hP2X7 cells were grown in Dulbecco's Modified Eagle's Medium (DMEM) high glucose supplemented with 10% FBS and […] G418. HEK293-rP2X7 cells were grown in DMEM/F-12 supplemented with 10% FBS, 1 mM CaCl2, 2 mM MgCl2, 2 mM L-Glutamine and […] G418. Cells were split such that they never became >70% confluent.
Intracellular Calcium Flux (FLIPR)
On the day prior to the experiment, 1321N1-hP2X7 or HEK293-rP2X7 cells were released into suspension with calcium-free PBS+Versene and washed by centrifugation with calcium-free PBS to remove the Versene. Cells were resuspended in growth medium at a density of 2.5×10^5 cells/mL and seeded into black walled, clear bottom 96 well plates (50,000 cells/well) approximately 18 hr prior to intracellular calcium flux experiments.
On the day of the experiment, plates were washed with FLIPR buffer (calcium- and magnesium-free Hank's Balanced Salt Solution (HBSS) supplemented with 10 mM Hepes, 2.5 mM probenecid and 2 mM calcium chloride) using a BIO-TEK 96 channel plate washer and incubated with […] fluo-3 dye at 37° C. for one hr. The dye was then removed by plate washing and the cells were allowed to equilibrate for 20 min at room temperature with antagonist or vehicle (FLIPR buffer). Agonist (100 μM BzATP final concentration for hP2X7; 5 μM BzATP final concentration or rP2X7) was added online with the FLIPR and fluorescence measurements made at 1 sec intervals for 60 sec followed by 3 sec intervals for a further 4 min (5 min total). A final addition of 5 μM ionomycin was made and the maximal BzATP-evoked fluorescence normalized to the maximal ionomycin-evoked fluorescence.

Going from `Cc1cc(Cl)c(OCCO)cc1Nc1nnc2n1C(c1cccc(F)c1)COC2` (centres unmarked) [Compound 29, 2-{2-Chloro-5-[5-(3-fluoro-phenyl)-5,6-dihydro-8H-[1,2,4]triazolo[3,4-c][1,4]oxazin-3-ylamino]-4-methyl-phenoxy}-ethanol] to `Cc1cc(-c2ccc(Cl)c(Nc3nnc4n3[C@H](c3ccc(F)cc3)COC4)c2)nn1CCO` [Compound 40, 2-(3-{4-Chloro-3-[(R)-5-(4-fluoro-phenyl)-5,6-dihydro-8H-[1,2,4]triazolo[3,4-c][1,4]oxazin-3-ylamino]-phenyl}-5-methyl-pyrazol-1-yl)-ethanol], the pIC50 rises from 7.13 to 7.54.

`Cc1ccc(-c2cc(C)n(CCO)n2)cc1Nc1nnc2n1[C@H](c1ccc(F)cc1)COC2` [Compound 30, 2-(3-{3-[(R)-5-(4-Fluoro-phenyl)-5,6-dihydro-8H-[1,2,4]triazolo[3,4-c][1,4]oxazin-3-ylamino]-4-methyl-phenyl}-5-methyl-pyrazol-1-yl)-ethanol] and `Cc1ccc(-c2cc(C)n(C[C@@H](O)CO)n2)cc1Nc1nnc2n1[C@H](c1ccc(F)cc1)COC2` [Compound 32, (R)-3-(3-{3-[(R)-5-(4-Fluoro-phenyl)-5,6-dihydro-8H-[1,2,4]triazolo[3,4-c][1,4]oxazin-3-ylamino]-4-methyl-phenyl}-5-methyl-pyrazol-1-yl)-propane-1,2-diol] are within 0.2 log units of each other in pIC50: 7.735 for the first, 7.5475 for the second.

`Cc1ccc(-c2cc(C)n(C[C@@H](C)O)n2)cc1Nc1nnc2n1[C@H](c1ccc(F)cc1)COC2` [Compound 31, (R)-1-(3-{3-[(R)-5-(4-Fluoro-phenyl)-5,6-dihydro-8H-[1,2,4]triazolo[3,4-c][1,4]oxazin-3-ylamino]-4-methyl-phenyl}-5-methyl-pyrazol-1-yl)-propan-2-ol] and `Cc1ccc(-c2cc(C)n(C[C@H](C)O)n2)cc1Nc1nnc2n1[C@H](c1ccc(F)cc1)COC2` [Compound 34, (S)-1-(3-{3-[(R)-5-(4-Fluoro-phenyl)-5,6-dihydro-8H-[1,2,4]triazolo[3,4-c][1,4]oxazin-3-ylamino]-4-methyl-phenyl}-5-methyl-pyrazol-1-yl)-propan-2-ol] are within 0.2 log units of each other in pIC50: 7.45 for the first, 7.4 for the second.

`COC[C@H](O)Cn1nc(-c2ccc(C)c(Nc3nnc4n3[C@H](c3ccc(F)cc3)COC4)c2)cc1C` [Compound 33, (R)-1-(3-{3-[(R)-5-(4-Fluoro-phenyl)-5,6-dihydro-8H-[1,2,4]triazolo[3,4-c][1,4]oxazin-3-ylamino]-4-methyl-phenyl}-5-methyl-pyrazol-1-yl)-3-methoxy-propan-2-ol] and `Cc1ccc(-c2cc(C)n(C[C@H](O)CO)n2)cc1Nc1nnc2n1[C@H](c1ccc(F)cc1)COC2` [Compound 35, (S)-3-(3-{3-[(R)-5-(4-Fluoro-phenyl)-5,6-dihydro-8H-[1,2,4]triazolo[3,4-c][1,4]oxazin-3-ylamino]-4-methyl-phenyl}-5-methyl-pyrazol-1-yl)-propane-1,2-diol] are within 0.2 log units of each other in pIC50: 7.56 for the first, 7.755 for the second.

Compared with `Cc1ccc2ncccc2c1Nc1nnc2n1[C@H](c1ccc(F)cc1)COC2` [Compound 36, [(R)-5-(4-Fluoro-phenyl)-5,6-dihydro-8H-[1,2,4]triazolo[3,4-c][1,4]oxazin-3-yl]-(6-methyl-quinolin-5-yl)-amine], `Cc1ccc2[nH]c(=O)ccc2c1Nc1nnc2n1[C@H](c1ccc(F)cc1)COC2` [Compound 38, 5-[(R)-5-(4-Fluoro-phenyl)-5,6-dihydro-8H-[1,2,4]triazolo[3,4-c][1,4]oxazin-3-ylamino]-6-methyl-1H-quinolin-2-one] is lower in pIC50: 7.87 for the first, 7.46 for the second.

`Cc1ccc(-c2ccnn(C)c2=O)cc1Nc1nnc2n1[C@H](c1ccc(F)cc1)COC2` [Compound 37, 4-{3-[(R)-5-(4-Fluoro-phenyl)-5,6-dihydro-8H-[1,2,4]triazolo[3,4-c][1,4]oxazin-3-ylamino]-4-methyl-phenyl}-2-methyl-2H-pyridazin-3-one] showed a pIC50 of 7.865.
